Active and inactive are the calls of the source. No cut-off for these calls is given here.
Key:
RXF 393 = assay: Growth inhibition against human RXF 393 cells assessed as total growth inhibitory concentration incubated for 48 hrs by sulforhodamine B spectrophotometric assay; type: functional
[1] = Cytotoxicity against human HaCaT cells assessed as cell growth inhibition incubated for 72 hrs by MTT assay; type: toxicity, cell-based; conditions: HaCaT cells
KB 3-1 [2] = assay: Induction of apoptosis in human KB 3-1 cells assessed as increase in BIP protein expression at 0.5 to 5 uM incubated for 3 hrs by Western blotting assay; type: functional, cell-based; conditions: dose 0.5-5 µM
SNB-19 = assay: Growth inhibition of human SNB-19 cells incubated for 48 hrs by sulforhodamine B spectrophotometric assay; type: functional
COLO 205 [3] = assay: Growth inhibition against human COLO 205 cells assessed as lethal concentration incubated for 48 hrs by sulforhodamine B spectrophotometric assay; type: functional; conditions: read-out: LC50 (the source's name)
MDA-MB-231 [4] = assay: Induction of apoptosis in human MDA-MB-231 cells assessed as increase in caspase-8 level at 5 uM incubated for 24 hrs by flow cytometry analysis; type: functional
MOLT-4 = assay: Growth inhibition of human MOLT-4 cells incubated for 48 hrs by sulforhodamine B spectrophotometric assay; type: functional
COLO 205 [5] = assay: Growth inhibition of human COLO 205 cells incubated for 48 hrs by sulforhodamine B spectrophotometric assay; type: functional
NCI/ADR-RES = assay: Growth inhibition against human NCI-ADR-RES cells assessed as total growth inhibitory concentration incubated for 48 hrs by sulforhodamine B spectrophotometric assay; type: functional
A498 = assay: Growth inhibition against human A498 cells assessed as lethal concentration incubated for 48 hrs by sulforhodamine B spectrophotometric assay; type: functional; conditions: read-out: LC50 (the source's name)
RPMI-8226 = assay: Growth inhibition against human RPMI-8226 cells assessed as lethal concentration incubated for 48 hrs by sulforhodamine B spectrophotometric assay; type: functional; conditions: read-out: LC50 (the source's name)
LOX IMVI = assay: Growth inhibition against human LOX IMVI cells assessed as lethal concentration incubated for 48 hrs by sulforhodamine B spectrophotometric assay; type: functional; conditions: read-out: LC50 (the source's name)
HOP-62 = assay: Growth inhibition of human HOP-62 cells incubated for 48 hrs by sulforhodamine B spectrophotometric assay; type: functional
Hs-578T = assay: Growth inhibition of human Hs-578T cells incubated for 48 hrs by sulforhodamine B spectrophotometric assay; type: functional
NCI-H460 [6] = assay: Growth inhibition against human NCI-H460 cells assessed as total growth inhibitory concentration incubated for 48 hrs by sulforhodamine B spectrophotometric assay; type: functional
[7] = Cytotoxicity against human Lymphocyte cells assessed as cell growth inhibition incubated for 72 hrs by MTT assay; type: toxicity, cell-based; conditions: lymphocytes
CCRF-CEM = assay: Growth inhibition of human CCRF-CEM cells incubated for 48 hrs by sulforhodamine B spectrophotometric assay; type: functional
SK-OV-3 = assay: Growth inhibition against human SK-OV-3 cells assessed as lethal concentration incubated for 48 hrs by sulforhodamine B spectrophotometric assay; type: functional; conditions: read-out: LC50 (the source's name)
NCI-H522 = assay: Growth inhibition of human NCI-H522 cells incubated for 48 hrs by sulforhodamine B spectrophotometric assay; type: functional
HCT-15 = assay: Growth inhibition against human HCT-15 cells assessed as lethal concentration incubated for 48 hrs by sulforhodamine B spectrophotometric assay; type: functional; conditions: read-out: LC50 (the source's name)
SK-MEL-5 [8] = assay: Growth inhibition of human SK-MEL-5 cells incubated for 48 hrs by sulforhodamine B spectrophotometric assay; type: functional
ACHN = assay: Growth inhibition of human ACHN cells incubated for 48 hrs by sulforhodamine B spectrophotometric assay; type: functional
HT-29 = assay: Growth inhibition of human HT-29 cells incubated for 48 hrs by sulforhodamine B spectrophotometric assay; type: functional
NCI-H460 [9] = assay: Growth inhibition against human NCI-H460 cells assessed as lethal concentration incubated for 48 hrs by sulforhodamine B spectrophotometric assay; type: functional; conditions: read-out: LC50 (the source's name)
SK-MEL-28 [10] = assay: Growth inhibition against human SK-MEL-28 cells assessed as lethal concentration incubated for 48 hrs by sulforhodamine B spectrophotometric assay; type: functional; conditions: read-out: LC50 (the source's name)
MDA-MB-231 [11] = assay: Induction of apoptosis in human MDA-MB-231 cells assessed as increase in caspase 3/7 activity at 5 uM incubated for 24 hrs by flow cytometry analysis; type: functional
MDA-MB-231 [12] = assay: Induction of apoptosis in human MDA-MB-231 cells at 10 uM incubated for 24 hrs by Annexin-V-FITC/propidium iodide staining based flow cytometry analysis (reference value: 8.9%); type: functional
K562 = assay: Growth inhibition of human K562 cells incubated for 48 hrs by sulforhodamine B spectrophotometric assay; type: functional
UACC-257 = assay: Growth inhibition against human UACC-257 cells assessed as lethal concentration incubated for 48 hrs by sulforhodamine B spectrophotometric assay; type: functional; conditions: read-out: LC50 (the source's name)
SK-MEL-28 [13] = assay: Growth inhibition against human SK-MEL-28 cells assessed as total growth inhibitory concentration incubated for 48 hrs by sulforhodamine B spectrophotometric assay; type: functional
DU-145 = assay: Anticancer activity against human DU-145 cells assessed as cell growth at 10 uM incubated for 48 hrs by sulforhodamine B assay; type: functional; conditions: read-out: Activity
U-251 = assay: Growth inhibition of human U-251 cells incubated for 48 hrs by sulforhodamine B spectrophotometric assay; type: functional
[14] = Acute toxicity in C57BL/6 mouse assessed as survival rate at 20 mg/kg,ip administration observed after 22 days; type: organism-based; conditions: in vivo, time 22 day
[15] = Acute toxicity in C57BL/6 mouse assessed as change in white blood cells at 20 mg/kg,ip administration observed after 22 days; type: organism-based; conditions: in vivo, 528 h, time 22 day
EKVX = assay: Growth inhibition against human EKVX cells assessed as lethal concentration incubated for 48 hrs by sulforhodamine B spectrophotometric assay; type: functional; conditions: read-out: LC50 (the source's name)
SF-539 = assay: Growth inhibition of human SF-539 cells incubated for 48 hrs by sulforhodamine B spectrophotometric assay; type: functional
SK-MEL-2 = assay: Growth inhibition of human SK-MEL-2 cells incubated for 48 hrs by sulforhodamine B spectrophotometric assay; type: functional
Malme-3M = assay: Growth inhibition of human Malme-3M cells incubated for 48 hrs by sulforhodamine B spectrophotometric assay; type: functional
KB 3-1 [16] = assay: Antiproliferative activity against human KB 3-1 cells assessed as decrease in cell growth at 500 nM incubated for 72 hrs by crystal violet staining based assay; type: functional
HL-60 = assay: Growth inhibition against human HL-60 cells assessed as lethal concentration incubated for 48 hrs by sulforhodamine B spectrophotometric assay; type: functional; conditions: read-out: LC50 (the source's name)
OVCAR-5 = assay: Growth inhibition of human OVCAR-5 cells incubated for 48 hrs by sulforhodamine B spectrophotometric assay; type: functional
Jurkat = assay: Induction of apoptosis in human Jurkat cells assessed as necrotic cells at 25 uM by DNA laddering assay; type: functional, cell-based
[17] = GSH reactivity of compound at pH 7.4 phosphate buffer assessed as GSH-adduct formation at 1 mM incubated for 1 hr by spectrophotometric analysis; type: physicochemical; conditions: pH 7.4, 1 h, 1000 µM
SK-MEL-5 [18] = assay: Anticancer activity against human SK-MEL-5 cells assessed as cell growth at 10 uM incubated for 48 hrs by sulforhodamine B assay; type: functional; conditions: read-out: Activity
[19] = Acute toxicity in C57BL/6 mouse assessed as decrease in body mass at 20 mg/kg,ip administration observed after 22 days; type: organism-based; conditions: in vivo, 528 h, time 22 day
NCI-H460 [20] = assay: Growth inhibition of human NCI-H460 cells incubated for 48 hrs by sulforhodamine B spectrophotometric assay; type: functional

Compound: O=C1C2=C(C(=O)c3c(O)cccc31)C(c1ccco1)c1sc(=O)[nH]c1S2 (stereo unspecified)
- TGI (RXF 393): 5.57 µM
- IC50 at 72 h [1]: 37.2 µM
- Activity (KB 3-1 [2]): inactive
- GI50 (SNB-19): 2.6 µM
- CC50 (COLO 205 [3]): 6.93 µM
- Activity (MDA-MB-231 [4]): 19.5%
- GI50 (MOLT-4): 2.71 µM
- GI50 (COLO 205 [5]): 1.89 µM
- TGI (NCI/ADR-RES): 12.3 µM
- CC50 (A498): 31.6 µM
- CC50 (RPMI-8226): > 100 µM
- CC50 (LOX IMVI): 84 µM
- GI50 (HOP-62): 2.04 µM
- GI50 (Hs-578T): 2.2 µM
- TGI (NCI-H460 [6]): 3.48 µM
- IC50 at 72 h [7]: > 50 µM
- GI50 (CCRF-CEM): 3.29 µM
- CC50 (SK-OV-3): 56.5 µM
- GI50 (NCI-H522): 2.31 µM
- CC50 (HCT-15): 8.59 µM
- GI50 (SK-MEL-5 [8]): 1.59 µM
- GI50 (ACHN): 4.08 µM
- GI50 (HT-29): 3.3 µM
- CC50 (NCI-H460 [9]): 7.84 µM
- CC50 (SK-MEL-28 [10]): 7.42 µM
- Activity (MDA-MB-231 [11]): 10.6%
- Activity (MDA-MB-231 [12]): 28.2%
- GI50 (K562): 2.84 µM
- CC50 (UACC-257): 6.75 µM
- TGI (SK-MEL-28 [13]): 3.72 µM
- growth at 10 µM (DU-145): -93.9%
- GI50 (U-251): 3.07 µM
- survival at 528 h [14]: 100%
- Activity [15]: Non-Toxic
- CC50 (EKVX): 44.3 µM
- GI50 (SF-539): 1.93 µM
- GI50 (SK-MEL-2): 3.51 µM
- GI50 (Malme-3M): 0.75 µM
- Activity (KB 3-1 [16]): Active
- CC50 (HL-60): > 100 µM
- GI50 (OVCAR-5): 2.13 µM
- Activity (Jurkat): Active
- Activity [17]: Active
- growth at 10 µM (SK-MEL-5 [18]): -93.4%
- Activity [19]: Toxic
- GI50 (NCI-H460 [20]): 1.54 µM
